Measured values from patent publication US20240058481A1, “RADIOLABELLED COMPOUNDS FOR DIAGNOSING CHOLINERGIC NEURODEGENERATIVE DISEASES” (CENTRE NATIONAL DE LA RECHERCHE SCIENTIFIQUE, priority 2020, published 2024).

Key:
[1] = target: T1, VAChT (Rattus norvegicus, UniProt Q62666); experiment: Biodistribution: cerebral accumulation of the tracers in the rat; type: in vivo; details: for Striatum/cerebellum accumulation ratio / Cerebral accumulation, cerebellum / Cerebral accumulation, striatum: 2 hours after i.v. injection of the tracer; for Cerebral accumulation, cerebellum / Cerebral accumulation, striatum: ± SEM, n=6/group
T1 construct: The entire brain was sampled and dissected in different regions: cortex, striatum, hippocampus, thalamus and cerebellum; from tissue; host or cells: brain regions of male Wistar rats (in vivo tracer injection, ex vivo counting)
T1 sequence (Q62666 1-530): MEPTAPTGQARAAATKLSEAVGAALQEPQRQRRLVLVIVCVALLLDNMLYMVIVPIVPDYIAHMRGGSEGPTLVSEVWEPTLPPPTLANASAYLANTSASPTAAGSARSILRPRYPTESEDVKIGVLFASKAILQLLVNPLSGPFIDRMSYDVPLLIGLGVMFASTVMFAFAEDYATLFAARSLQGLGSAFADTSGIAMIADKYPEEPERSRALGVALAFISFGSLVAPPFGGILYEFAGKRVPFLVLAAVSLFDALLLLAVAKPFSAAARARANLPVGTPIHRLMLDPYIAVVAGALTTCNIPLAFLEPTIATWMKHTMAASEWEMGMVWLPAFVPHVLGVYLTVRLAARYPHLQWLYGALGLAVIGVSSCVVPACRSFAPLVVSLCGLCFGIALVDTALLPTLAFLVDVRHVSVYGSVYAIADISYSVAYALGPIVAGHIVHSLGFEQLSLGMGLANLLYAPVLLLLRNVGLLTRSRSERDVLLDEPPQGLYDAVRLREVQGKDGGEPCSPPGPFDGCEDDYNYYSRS
Experimental: Animals: The experiments were conducted in male rates of Wistar strain weighing 250-300 g (Breeding Centre R. Janvier, Le Genest St Isle, France). All procedures were carried out paying heed to European regulations on animal experimentation (2010/63/EU) with authorisation from the regional ethics committee on animal experiments: Comité Régional d'Ethique en Expérimentation Animale.
Biodistribution studies: The rats in the control group were given an i.v. injection of tracer (4-6 MBq in 0.3 mL) under isoflurane gas anaesthesia (n=6/group). In the VES group (n=6/group), injection of the tracer was preceded (5 min) by an i.v. injection of vesamicol (0.5 μmol/kg). The rats were sacrificed by decapitation 2 h after injection of the tracer. The entire brain was sampled and dissected in different regions: cortex, striatum, hippocampus, thalamus and cerebellum. Blood and bone fractions were also sampled. The biological samples were weighed, the radioactivity thereof was measured with a γ counter (2480 Gamma counter Wizard, Perkin Elmer), and the percentage of injected dose/g of tissue (% ID/g) was calculated.

[2] = target: T1, VAChT; experiment: Radioligand ([3H]vesamicol) binding on rat brain membrane preparation, affinity for VAChT; details: rat brain membranes, mean ± standard deviation of 3 independent experiments, Cheng & Prussoff
Experimental: Measurement of the affinity of the different compounds for VAChT was obtained by radioligand binding method on rat brain membrane preparation, following the method described in Scheunemann et al. (Bioorg Med Chem 2004;12:1459-65). The L-(−)-vesamicol was supplied by Sigma Aldrich (Saint-Quentin-Fallavier, France) and [^3H]vesamicol (specific activity 1705.7 GBq/mmol) by Perkin-Elmer (Courtaboeuf, France). The IC50 values were determined graphically for each compound and Ki (inhibition constant) was calculated following the method of Cheng & Prussoff (Biochemical pharmacology 1973;22:3099-108). The results are expressed as a mean of Ki values±standard deviation from the mean after 3 independent experiments.

Question: For `OC1Cc2cccc(F)c2CC1N1CCC(c2ccccc2)CC1` (racemic) [rac (+/−)-5-FBVM Trans, 5-Fluoro-3-(4-phenylpiperidin-1-yl)-1,2,3,4-tetrahydronaphthalen-2-ol], which In vivo stability ([1]; in vivo PET tracer in the rat) is on record?
Answer: good

Question: And the “Passing through the blood-brain barrier” value ([1]; in vivo PET tracer in the rat)?
Answer: excellent

Question: And the Ki [2]?
Answer: 0.0013 µM

Question: How did the Ki [2] turn out when `OC1Cc2cccc(OCCF)c2CC1N1CCC(c2ccccc2)CC1` (single isomer, unassigned; (-)) [(−)-FEOBV, 5-fluoroethoxybenzovesamicol, reference compound] was run?
Answer: 0.061 ± 0.0028 µM

Question: How did the Ki [2] turn out when `O[C@H]1Cc2cccc(F)c2C[C@@H]1N1CCC(c2ccccc2)CC1` [(+)-(S,S)-5-FBVM. E2, (2S,3S)-5-Fluoro-3-(4-phenylpiperidin-1-yl)-1,2,3,4-tetrahydronaphthalen-2-ol] was run?
Answer: 0.035 µM

Question: Which Striatum/cerebellum accumulation ratio ([1]; rat) does the source give for `O[C@H]1Cc2cccc([18F])c2C[C@@H]1N1CCC(c2ccccc2)CC1` [(+)-(S,S)-5-[^18F]FBVM ^18F E2] here?
Answer: 1.52

Question: What about the “Cerebral accumulation, cerebellum” value ([1]; rat) of the same compound?
Answer: 0.215 ± 0.011 % ID/g

Question: What about the “Cerebral accumulation, striatum” value ([1]; rat) of the same compound?
Answer: 0.327 ± 0.015 % ID/g

Question: With `O[C@@H]1Cc2cccc(F)c2C[C@H]1N1CCC(c2ccccc2)CC1` [(−)-(R,R)-5-FBVM E1, (2R,3R)-5-Fluoro-3-(4-phenylpiperidin-1-yl)-1,2,3,4-tetrahydronaphthalen-2-ol] as the compound, how does the Ki [2] read?
Answer: 0.0009 µM

Question: Which results are given for `O[C@@H]1Cc2cccc([18F])c2C[C@H]1N1CCC(c2ccccc2)CC1` [(−)-(R,R)-5-FBVM ^18F E1]?
Answer: Striatum/cerebellum accumulation ratio ([1]; rat): 5.84; Cerebral accumulation, cerebellum ([1]; rat): 0.232 ± 0.017 % ID/g; Cerebral accumulation, striatum ([1]; rat): 1.356 ± 0.069 % ID/g; Reduction of accumulation in the striatum after (−)vesamicol pre-administration ([1]; rat, (−)vesamicol 0.5 μmole/kg, 5 minutes before injection of the tracer): 46%

Question: Which Striatum/cerebellum accumulation ratio ([1]; rat) does the source give for `OC1Cc2cccc(OCCF)c2CC1N1CCC(c2ccccc2)CC1` (stereo not shown) [[^18F]FEOBV, 5-fluoroethoxybenzovesamicol, reference compound] here?
Answer: 3.59

Question: What about the “Cerebral accumulation, cerebellum” value ([1]; rat) of the same compound?
Answer: 0.844 ± 0.025 % ID/g

Question: What about the “Cerebral accumulation, striatum” value ([1]; rat) of the same compound?
Answer: 0.235 ± 0.011 % ID/g
